The values below come from publication PMC5218480 (PLoS ONE, 2017).

The test relates to MV-4-11 cells. Kind of test: Gene expression microarray analysis (Affymetrix PrimeView) and GSEA. The conditions noted are these: ProbeSet 11725100_s_at; LIST B. Details: RFU PODN (11730768_x_at) / Fold change /veh PODN (11730768_x_at) / RFU LINC00158 (11744669_a_at) / Fold change /veh LINC00158 (11744669_a_at) / RFU DUSP10 (11751237_a_at) / Fold change /veh DUSP10 (11751237_a_at) / RFU ID3 (11757404_x_at) / Fold change /veh ID3 (11757404_x_at) / RFU PLEKHG5 (11737974_s_at) / Fold change /veh PLEKHG5 (11737974_s_at) / RFU LRRC4B (11730491_at) / Fold change /veh LRRC4B (11730491_at) / RFU GIMAP4 (11747438_a_at) / Fold change /veh GIMAP4 (11747438_a_at) / RFU KRT8 (11758183_x_at) / Fold change /veh KRT8 (11758183_x_at) / RFU CNN1 (11734310_a_at) / Fold change /veh CNN1 (11734310_a_at) / RFU VPS37D (11726825_at) / Fold change /veh VPS37D (11726825_at) / RFU C10orf10 (11716522_x_at) / Fold change /veh C10orf10 (11716522_x_at) / RFU KIR2DL2 /// KIR2DL4 /// KIR2DL5A /// KIR2DL5B /// KIR2DS1 /// KIR2DS2 /// KIR2DS3 /// KIR2DS4 /// KIR3DL3 /// KIR3DL3 /// KIR3DS1 (11738374_at) / Fold change /veh KIR2DL2 /// KIR2DL4 /// KIR2DL5A /// KIR2DL5B /// KIR2DS1 /// KIR2DS2 /// KIR2DS3 /// KIR2DS4 /// KIR3DL3 /// KIR3DL3 /// KIR3DS1 (11738374_at) / RFU C1QL1 (11718748_at) / Fold change /veh C1QL1 (11718748_at) / RFU TMPRSS4 (11747572_a_at) / Fold change /veh TMPRSS4 (11747572_a_at) / RFU HAMP (11756126_x_at) / Fold change /veh HAMP (11756126_x_at) / RFU RNFT2 (11725882_a_at) / Fold change /veh RNFT2 (11725882_a_at) / RFU NR4A2 (11747474_a_at) / Fold change /veh NR4A2 (11747474_a_at) / RFU ABCC12 (11746883_a_at) / Fold change /veh ABCC12 (11746883_a_at) / RFU TMEM136 (11760407_x_at) / Fold change /veh TMEM136 (11760407_x_at) / RFU CLDN22 /// WWC2 (11732394_at) / Fold change /veh CLDN22 /// WWC2 (11732394_at) / RFU HLA-DPB1 (11760878_x_at) / Fold change /veh HLA-DPB1 (11760878_x_at) / RFU SPINT1 (11716480_a_at) / Fold change /veh SPINT1 (11716480_a_at) / RFU GAP43 (11754022_s_at) / Fold change /veh GAP43 (11754022_s_at) / RFU A4GNT (11735810_at) / Fold change /veh A4GNT (11735810_at) / RFU PRB3 (11715151_x_at) / Fold change /veh PRB3 (11715151_x_at) / RFU TUBB4B (11761932_at) / Fold change /veh TUBB4B (11761932_at) / RFU CAPN14 (11732068_a_at) / Fold change /veh CAPN14 (11732068_a_at) / RFU TMCC2 (11721928_a_at) / Fold change /veh TMCC2 (11721928_a_at) / RFU IRGQ (11745062_a_at) / Fold change /veh IRGQ (11745062_a_at) / RFU FAM174B (11720279_a_at) / Fold change /veh FAM174B (11720279_a_at) / RFU TMPRSS4 (11748680_a_at) / Fold change /veh TMPRSS4 (11748680_a_at) / RFU FAM212B (11763350_a_at) / Fold change /veh FAM212B (11763350_a_at) / RFU PLEKHG5 (11743358_a_at) / Fold change /veh PLEKHG5 (11743358_a_at) / RFU ZSCAN30 (11745921_a_at) / Fold change /veh ZSCAN30 (11745921_a_at) / RFU CMKLR1 (11741424_a_at) / Fold change /veh CMKLR1 (11741424_a_at) / RFU LOC101060620 /// MAPK8IP1 (11723275_at) / Fold change /veh LOC101060620 /// MAPK8IP1 (11723275_at) / RFU SPTSSB (11747773_x_at) / Fold change /veh SPTSSB (11747773_x_at) / RFU PRSS12 (11739890_at) / Fold change /veh PRSS12 (11739890_at) / RFU BIN1 (11741810_x_at) / Fold change /veh BIN1 (11741810_x_at) / RFU WNT11 (11732464_a_at) / Fold change /veh WNT11 (11732464_a_at) / RFU C10orf10 (11716521_a_at) / Fold change /veh C10orf10 (11716521_a_at) / RFU C5orf56 (11738089_at) / Fold change /veh C5orf56 (11738089_at) / RFU CYB561 (11721691_x_at) / Fold change /veh CYB561 (11721691_x_at) / RFU ANKRD19P (11752326_a_at) / Fold change /veh ANKRD19P (11752326_a_at) / RFU OR2T12 /// OR2T33 /// OR2T8 (11738714_s_at) / Fold change /veh OR2T12 /// OR2T33 /// OR2T8 (11738714_s_at) / RFU VCAN (11748164_a_at) / Fold change /veh VCAN (11748164_a_at) / RFU JSRP1 (11732532_at) / Fold change /veh JSRP1 (11732532_at) / RFU KRTAP10-11 (11738290_x_at) / Fold change /veh KRTAP10-11 (11738290_x_at) / RFU MYO3A (11730013_a_at) / Fold change /veh MYO3A (11730013_a_at) / RFU EBF3 (11725865_a_at) / Fold change /veh EBF3 (11725865_a_at) / RFU CAMK2N1 (11719241_x_at) / Fold change /veh CAMK2N1 (11719241_x_at) / RFU C5orf56 (11738088_a_at) / Fold change /veh C5orf56 (11738088_a_at) / RFU OLFML3 (11715873_a_at) / Fold change /veh OLFML3 (11715873_a_at) / RFU LOC100653217 /// NTM (11731650_a_at) / Fold change /veh LOC100653217 /// NTM (11731650_a_at) / RFU MAPK11 (11762145_a_at) / Fold change /veh MAPK11 (11762145_a_at) / RFU FIZ1 (11724087_x_at) / Fold change /veh FIZ1 (11724087_x_at) / RFU OASL (11726364_x_at) / Fold change /veh OASL (11726364_x_at) / RFU SOX15 (11748057_x_at) / Fold change /veh SOX15 (11748057_x_at) / RFU CD79A (11719716_a_at) / Fold change /veh CD79A (11719716_a_at) / RFU HIST1H1D (11736915_at) / Fold change /veh HIST1H1D (11736915_at) / RFU CASKIN2 (11723855_a_at) / Fold change /veh CASKIN2 (11723855_a_at) / RFU LOC730098 (11760151_x_at) / Fold change /veh LOC730098 (11760151_x_at) / RFU OR4N2 (11742367_at) / Fold change /veh OR4N2 (11742367_at) / RFU PRRT2 (11749266_a_at) / Fold change /veh PRRT2 (11749266_a_at) / RFU SNX32 (11753110_a_at) / Fold change /veh SNX32 (11753110_a_at) / RFU CDHR5 (11726645_a_at) / Fold change /veh CDHR5 (11726645_a_at) / RFU RCAN1 (11760418_a_at) / Fold change /veh RCAN1 (11760418_a_at) / RFU FAM167A (11723789_a_at) / Fold change /veh FAM167A (11723789_a_at) / RFU FAM26E (11764081_at) / Fold change /veh FAM26E (11764081_at) / RFU ISYNA1 (11749810_s_at) / Fold change /veh ISYNA1 (11749810_s_at) / RFU ACY1 (11761880_at) / Fold change /veh ACY1 (11761880_at) / RFU 11764098_at / Fold change /veh 11764098_at / RFU SAMD14 (11745864_x_at) / Fold change /veh SAMD14 (11745864_x_at) / RFU NPB (11741838_a_at) / Fold change /veh NPB (11741838_a_at) / RFU TMPRSS6 (11731388_a_at) / Fold change /veh TMPRSS6 (11731388_a_at) / RFU KRTAP10-2 (11738614_at) / Fold change /veh KRTAP10-2 (11738614_at) / RFU ARHGAP8 /// PRR5-ARHGAP8 (11727945_x_at) / Fold change /veh ARHGAP8 /// PRR5-ARHGAP8 (11727945_x_at) / RFU KRTAP5-7 /// NADSYN1 (11734609_at) / Fold change /veh KRTAP5-7 /// NADSYN1 (11734609_at) / RFU RASL12 (11751679_a_at) / Fold change /veh RASL12 (11751679_a_at) / RFU CDKN2B (11736163_a_at) / Fold change /veh CDKN2B (11736163_a_at) / RFU PRF1 (11729649_at) / Fold change /veh PRF1 (11729649_at) / RFU, ZNF638 /// ZNF638-IT1 / Fold change vs veh, ZNF638 /// ZNF638-IT1 / RFU, PANK3 / Fold change vs veh, PANK3 / RFU, SH3YL1 / Fold change vs veh, SH3YL1 / RFU, ZEB2 / Fold change vs veh, ZEB2 / RFU, NRIP1 / Fold change vs veh, NRIP1 / RFU, PTTG1IP / Fold change vs veh, PTTG1IP / RFU, CAPN2 / Fold change vs veh, CAPN2 / RFU, MED14 / Fold change vs veh, MED14 / RFU, SNORA58 / Fold change vs veh, SNORA58 / RFU, C1orf63 / Fold change vs veh, C1orf63 / RFU, LRRFIP1 / Fold change vs veh, LRRFIP1 / RFU, NDUFAF7 / Fold change vs veh, NDUFAF7 / RFU, SLC12A2 / Fold change vs veh, SLC12A2 / RFU, IBTK / Fold change vs veh, IBTK / RFU, ESF1 / Fold change vs veh, ESF1 / Fold change vs veh, TMEM50B / RFU, TAOK1 / Fold change vs veh, TAOK1 / RFU, ACBD3 / Fold change vs veh, ACBD3 / RFU, TMA16 / Fold change vs veh, TMA16 / RFU, RWDD3 / Fold change vs veh, RWDD3 / RFU, BCAT1 / Fold change vs veh, BCAT1 / RFU, EDEM3 / Fold change vs veh, EDEM3 / RFU, TMEM33 / Fold change vs veh, TMEM33 / RFU, WDR75 / Fold change vs veh, WDR75 / RFU, AHCTF1 / Fold change vs veh, AHCTF1 / RFU, TFRC / Fold change vs veh, TFRC / RFU, ZDHHC17 / Fold change vs veh, ZDHHC17 / RFU, NOM1 / Fold change vs veh, NOM1 / RFU, ARL8B / Fold change vs veh, ARL8B / RFU, ZBTB11 / Fold change vs veh, ZBTB11 / RFU, TAMM41 / Fold change vs veh, TAMM41 / RFU, KIAA1704 /// LOC100996395 / Fold change vs veh, KIAA1704 /// LOC100996395 / RFU, ING1 / Fold change vs veh, ING1 / RFU, TRMT61B / Fold change vs veh, TRMT61B / RFU, FUBP3 / Fold change vs veh, FUBP3 / RFU, TP53 / Fold change vs veh, TP53 / RFU, TNKS2 / Fold change vs veh, TNKS2 / RFU, ZFP14 / Fold change vs veh, ZFP14 / RFU, ACTR2 / Fold change vs veh, ACTR2 / RFU, PPP3R1 / Fold change vs veh, PPP3R1 / RFU, PIK3R1 / Fold change vs veh, PIK3R1 / RFU, HNRNPA1 / Fold change vs veh, HNRNPA1 / RFU, RNF170 / Fold change vs veh, RNF170 / RFU, ZNF28 / Fold change vs veh, ZNF28 / RFU, RNGTT / Fold change vs veh, RNGTT / RFU, OGT / Fold change vs veh, OGT / RFU, BRD1 / Fold change vs veh, BRD1 / RFU, MARS / Fold change vs veh, MARS / RFU, ZNF655 / Fold change vs veh, ZNF655 / RFU, FAHD1 / Fold change vs veh, FAHD1 / RFU, BDP1 / Fold change vs veh, BDP1 / RFU, LRRCC1 / Fold change vs veh, LRRCC1 / RFU, ARID1A / Fold change vs veh, ARID1A / RFU, ZNF146 / Fold change vs veh, ZNF146 / RFU, ZNF330 / Fold change vs veh, ZNF330 / RFU, GPN3 / Fold change vs veh, GPN3 / RFU, C9orf123 / Fold change vs veh, C9orf123 / RFU, N4BP2L2 / Fold change vs veh, N4BP2L2 / RFU, ARFIP1 / Fold change vs veh, ARFIP1 / RFU, FAM179B / Fold change vs veh, FAM179B / RFU, BCL10 / Fold change vs veh, BCL10 / RFU, UHRF1BP1L / Fold change vs veh, UHRF1BP1L / RFU, BET1 / Fold change vs veh, BET1 / RFU, CNOT2 / Fold change vs veh, CNOT2 / RFU, ZNF268 / Fold change vs veh, ZNF268 / Fold change vs veh, ZNF507 / RFU, DGCR2 / Fold change vs veh, DGCR2 / RFU, WDSUB1 / Fold change vs veh, WDSUB1 / Fold change vs veh, HSP90B1 /// MIR3652 / RFU, ADSS / Fold change vs veh, ADSS / RFU, GK / Fold change vs veh, GK / RFU, ZNF148 / Fold change vs veh, ZNF148 / RFU, TAF9 / Fold change vs veh, TAF9 / RFU, SLC1A5 / Fold change vs veh, SLC1A5 / RFU, SLMO2 / Fold change vs veh, SLMO2 / RFU, ABCC4 / Fold change vs veh, ABCC4 / RFU, LOC101060439 /// RAP1B / Fold change vs veh, LOC101060439 /// RAP1B / RFU, RFX7 / Fold change vs veh, RFX7 / RFU, GTPBP10 / Fold change vs veh, GTPBP10 / RFU, CNEP1R1 / Fold change vs veh, CNEP1R1 / RFU, BIVM-ERCC5 /// ERCC5 / Fold change vs veh, BIVM-ERCC5 /// ERCC5 / RFU, ILF3 / Fold change vs veh, ILF3 / RFU 11762660_at / Fold change /veh 11762660_at / RFU VCAN (11757783_s_at) / Fold change /veh VCAN (11757783_s_at) / RFU DDX43 (11728927_at) / Fold change /veh DDX43 (11728927_at) / RFU KRT8 (11758188_x_at) / Fold change /veh KRT8 (11758188_x_at) / RFU NKD1 (11759106_at) / Fold change /veh NKD1 (11759106_at) / RFU SRD5A1 (11742802_a_at) / Fold change /veh SRD5A1 (11742802_a_at) / RFU TPSAB1 /// TPSB2 (11721975_s_at) / Fold change /veh TPSAB1 /// TPSB2 (11721975_s_at) / RFU GSTM3 (11746129_a_at) / Fold change /veh GSTM3 (11746129_a_at) / RFU IL23R (11737362_x_at) / Fold change /veh IL23R (11737362_x_at) / RFU TMEM51 (11727254_a_at) / Fold change /veh TMEM51 (11727254_a_at) / RFU PIWIL2 (11732686_x_at) / Fold change /veh PIWIL2 (11732686_x_at) / RFU ORM1 (11744905_x_at) / Fold change /veh ORM1 (11744905_x_at) / RFU CCDC152 (11743942_at) / Fold change /veh CCDC152 (11743942_at) / RFU ECM1 (11717891_a_at) / Fold change /veh ECM1 (11717891_a_at) / RFU IL23R (11748794_a_at) / Fold change /veh IL23R (11748794_a_at) / RFU TNFAIP8L3 (11732012_x_at) / Fold change /veh TNFAIP8L3 (11732012_x_at) / RFU MBOAT4 (11741988_at) / Fold change /veh MBOAT4 (11741988_at) / RFU 11764193_at / Fold change /veh 11764193_at / RFU TMEM53 (11763286_at) / Fold change /veh TMEM53 (11763286_at) / RFU MAGEB2 (11727129_at) / Fold change /veh MAGEB2 (11727129_at) / RFU TMEM200A (11744735_a_at) / Fold change /veh TMEM200A (11744735_a_at) / RFU CCDC152 (11751479_a_at) / Fold change /veh CCDC152 (11751479_a_at) / RFU FAM211A (11726209_a_at) / Fold change /veh FAM211A (11726209_a_at) / RFU RGS16 (11746705_a_at) / Fold change /veh RGS16 (11746705_a_at) / RFU VCAN (11755009_s_at) / Fold change /veh VCAN (11755009_s_at) / RFU RHOB (11743442_s_at) / Fold change /veh RHOB (11743442_s_at) / RFU RGS16 (11720943_a_at) / Fold change /veh RGS16 (11720943_a_at) / RFU RGS16 (11720944_at) / Fold change /veh RGS16 (11720944_at) / RFU, VPS4B / Fold change vs veh, VPS4B / RFU, CREB1 / Fold change vs veh, CREB1 / RFU, DNAJC13 / Fold change vs veh, DNAJC13 / RFU, GNAQ / Fold change vs veh, GNAQ / RFU, CDK5R1 / Fold change vs veh, CDK5R1 / RFU, ZRANB3 / Fold change vs veh, ZRANB3 / RFU, CUL4A / Fold change vs veh, CUL4A / RFU, CCNY / Fold change vs veh, CCNY / RFU, UFL1 / Fold change vs veh, UFL1 / RFU, COG3 / Fold change vs veh, COG3 / RFU, DIAPH2 / Fold change vs veh, DIAPH2 / RFU, SKA2 / Fold change vs veh, SKA2 / RFU, AFF3 / Fold change vs veh, AFF3 / RFU, LMF1 / Fold change vs veh, LMF1 / RFU, IPO11 / Fold change vs veh, IPO11 / RFU, DFFB / Fold change vs veh, DFFB / RFU, FOXP1 / Fold change vs veh, FOXP1 / RFU, CARD8 / Fold change vs veh, CARD8 / RFU, STRN3 / Fold change vs veh, STRN3 / RFU, ADK / Fold change vs veh, ADK / RFU, RASSF2 / Fold change vs veh, RASSF2 / RFU, WIPF1 / Fold change vs veh, WIPF1 / RFU, LARP1B / Fold change vs veh, LARP1B / RFU, RASA1 / Fold change vs veh, RASA1 / RFU, RB1 / Fold change vs veh, RB1 / RFU, PPFIA1 / Fold change vs veh, PPFIA1 / RFU, MAT2A / Fold change vs veh, MAT2A / RFU, CCT5 / Fold change vs veh, CCT5 / RFU, WDR92 / Fold change vs veh, WDR92 / RFU, CUX1 / Fold change vs veh, CUX1 / RFU, TTC7A / Fold change vs veh, TTC7A / RFU, TMEM135 / Fold change vs veh, TMEM135 / RFU, DEPTOR / Fold change vs veh, DEPTOR / RFU, CPM / Fold change vs veh, CPM / RFU, DNAJB6 / Fold change vs veh, DNAJB6 / RFU, CACNA2D3 / Fold change vs veh, CACNA2D3 / RFU, DTX4 / Fold change vs veh, DTX4 / RFU, TFCP2 / Fold change vs veh, TFCP2 / RFU, GMCL1 /// GMCL1P1 / Fold change vs veh, GMCL1 /// GMCL1P1 / RFU, AEBP2 / Fold change vs veh, AEBP2 / RFU, SNHG1 /// SNORD22 /// SNORD25 /// SNORD26 /// SNORD27 /// SNORD28 /// SNORD29 /// SNORD31 / Fold change vs veh, SNHG1 /// SNORD22 /// SNORD25 /// SNORD26 /// SNORD27 /// SNORD28 /// SNORD29 /// SNORD31 / Fold change (Aza/veh), C12orf56 (ProbeSet 11735607_a_at) / Fold change (ACY-1035/veh), C12orf56 (ProbeSet 11735607_a_at) / Fold change (Aza/veh), FGFR1OP (ProbeSet 11751329_s_at) / Fold change (ACY-1035/veh), FGFR1OP (ProbeSet 11751329_s_at) / Fold change (Aza/veh), VPS36 (ProbeSet 11739960_a_at) / Fold change (ACY-1035/veh), VPS36 (ProbeSet 11739960_a_at) / RFU SYPL1 (11715823_x_at) / Fold change /veh SYPL1 (11715823_x_at) / RFU IGFBP7 (11715501_s_at) / Fold change /veh IGFBP7 (11715501_s_at) / RFU REEP3 (11722064_at) / Fold change /veh REEP3 (11722064_at) / RFU IGLL1 (11728026_x_at) / Fold change /veh IGLL1 (11728026_x_at): dose or concentration left out as unconfirmed. The class given is cell-based, human.

For the molecule `Nc1ccc(-c2cccs2)cc1NC(=O)c1ccc2c(c1)cc(C1CC1)n2CCN1CCOCC1` [ACY-1035], the “Fold change vs veh, ESF1” value was 0.88.
